In patent US7452885B2, “Amino-5-(6-membered)heteroarylimidazolone compounds and the use thereof for β-secretase modulation” (Wyeth, priority 2005, dated 2008):
Like-named read-outs stand apart in the source and are kept apart here.

How the values were obtained:
human BACE1 = human BACE1 (Homo sapiens, UniProt P56817); test: Fluorescent kinetic assay, BACE-1 (Example 114); type: biochemical
Procedure: Evaluation of BACE-1 Binding Affinity of Test Compounds
Fluorescent Kinetic Assays
Dilution and mixing steps: total reaction volume: 100 μL
100 μM substrate dilution in 1×PBS was prepared, and
Fluorescence Readings: Readings at λex 320 nm and εem 420 nm are taken every 40 sec for 30 min at room temperature and the linear slope for substrate cleavage rate (vi) determined.

[1] = 10 nM human BACE1, 25 μM substrate WABC-6, 50 mM Na-Acetate pH 4.5, room temperature, read-out: BACE-1 (IC50 μM)

Sequence of human BACE1 (P56817 46-501): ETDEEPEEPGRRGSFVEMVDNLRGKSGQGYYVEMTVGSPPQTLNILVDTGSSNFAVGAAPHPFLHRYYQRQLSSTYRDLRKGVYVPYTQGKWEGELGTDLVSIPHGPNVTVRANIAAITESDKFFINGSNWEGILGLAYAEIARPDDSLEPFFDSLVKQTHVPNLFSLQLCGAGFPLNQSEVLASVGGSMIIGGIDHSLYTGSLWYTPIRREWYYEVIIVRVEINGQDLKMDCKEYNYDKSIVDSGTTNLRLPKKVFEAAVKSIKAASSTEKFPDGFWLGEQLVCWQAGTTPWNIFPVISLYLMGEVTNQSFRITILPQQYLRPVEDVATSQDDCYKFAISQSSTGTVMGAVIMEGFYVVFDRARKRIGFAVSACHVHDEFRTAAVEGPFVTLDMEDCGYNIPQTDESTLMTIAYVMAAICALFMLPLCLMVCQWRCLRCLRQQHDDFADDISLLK

Compound	melting point [°C]	IC50 (human BACE1; [1]) [µM]	IC50 (human BACE1) [µM]
CCc1cc(C2(c3ccc(F)c(-c4cnccc4F)c3)N=C(N)N(C)C2=O)cc(CC)n1 (stereo not drawn)	92 to 100		
CN1C(=O)C(c2cccnc2)(c2cccc(-c3ccccc3)c2)N=C1N (stereo not drawn) [Example 27]	212 to 214	0.11 to 1	
CN1C(=O)C(c2ccccc2)(c2cccnc2)N=C1N (stereo not drawn) [Example 28]	205 to 206	> 1	
CN1C(=O)C(c2ccncc2)(c2cccc(-c3cccc(C(F)(F)F)c3)c2)N=C1N (stereo not drawn) [Example 32]	234		0.11 to 1
COc1cncc(-c2cccc(C3(c4ccncc4)N=C(N)N(C)C3=O)c2)c1 (stereo not drawn) [Example 33]	198 to 200		0.01 to 0.1
CN1C(=O)C(c2ccncc2)(c2cccc(-c3cccc(O)c3)c2)N=C1N (stereo not drawn) [Example 35]	263 to 265		0.11 to 1
CN1C(=O)C(c2ccncc2)(c2cccc(-c3cccc(CO)c3)c2)N=C1N (stereo not drawn) [Example 36]	177 to 179		0.11 to 1
CN1C(=O)C(c2ccncc2)(c2cccc(-c3cccc(C(N)=O)c3)c2)N=C1N (stereo not drawn) [Example 37]	188 to 190		0.11 to 1
CC(=O)c1cccc(-c2cccc(C3(c4ccncc4)N=C(N)N(C)C3=O)c2)c1 (stereo not drawn) [Example 38]	218 to 220		0.11 to 1
COc1ccc(F)cc1-c1cccc(C2(c3ccncc3)N=C(N)N(C)C2=O)c1 (stereo not drawn) [Example 39]	233 to 235		0.01 to 0.1
CN1C(=O)C(c2ccncc2)(c2cccc(-c3cc(C#N)ccc3F)c2)N=C1N (stereo not drawn) [Example 41]	213 to 215		0.01 to 0.1
CN1C(=O)C(c2ccncc2)(c2cccc(-c3cc(F)cnc3Cl)c2)N=C1N (stereo not drawn) [Example 42]	120 to 122		0.11 to 1
CN1C(=O)C(c2ccncc2)(c2cccc(-c3ccoc3)c2)N=C1N (stereo not drawn) [Example 45]	113 to 115		
CN1C(=O)C(c2ccncc2)(c2cccc(-c3ccsc3)c2)N=C1N (stereo not drawn) [Example 46]	217 to 219		
CN1C(=O)C(c2ccncc2)(c2cccc(-c3cc[nH]n3)c2)N=C1N (stereo not drawn) [Example 47]	148 to 150		> 1
CN1C(=O)C(c2ccncc2)(c2cccc(-c3ccn(C)n3)c2)N=C1N (stereo not drawn) [Example 48]	199 to 201		0.11 to 1
COc1ncccc1-c1cccc(C2(c3ccncc3)N=C(N)N(C)C2=O)c1 (stereo not drawn) [Example 49]	243 to 245		0.11 to 1
CN1C(=O)C(c2ccncc2)(c2cccc(-c3ccc(C#N)s3)c2)N=C1N (stereo not drawn) [Example 50]	220 to 222		0.11 to 1
CN1C(=O)C(c2ccncc2)(c2cccc(O)c2)N=C1N (stereo not drawn) [Example 51, 2-Amino-5-(3-hydroxyphenyl)-3-methyl-5-pyridin-4-yl-3,5-dihydro-4H-imidazol-4-one]	245 to 247	> 1	
CCCOc1cccc(C2(c3ccncc3)N=C(N)N(C)C2=O)c1 (stereo not drawn) [Example 52, 2-Amino-3-methyl-5-(3-propoxyphenyl)-5-pyridin-4-yl-3,5-dihydro-4H-imidazol-4-one]	173 to 175		
CN1C(=O)C(c2ccncc2)(c2cccc(-c3cccc(OC(F)(F)F)c3)c2)N=C1N (stereo not drawn) [Example 54]	208 to 210		0.11 to 1
CN1C(=O)C(c2cccc(-c3cccnc3F)c2)(c2ccncc2F)N=C1N (stereo not drawn) [Example 58]	237 to 238		0.01 to 0.1
CN1C(=O)C(c2ccncc2)(c2ccc(F)c(-c3cccnc3F)c2)N=C1N (stereo not drawn) [Example 59]	218 to 220		0.01 to 0.1

The remaining lines, values ahead:

melting point [°C]	IC50 (human BACE1; [1]) [µM]	IC50 (human BACE1) [µM]	Compound
161 to 163		0.01 to 0.1	Cc1cc(C2(c3cccc(-c4cc(F)ccc4F)c3)N=C(N)N(C)C2=O)ccn1 (stereo not drawn) [Example 62]
217 to 219		0.01 to 0.1	CCc1cc(C2(c3cccc(-c4cccnc4)c3)N=C(N)N(C)C2=O)ccn1 (stereo not drawn) [Example 63]
188 to 192			CCc1cc(C2(c3cccc(-c4cc(F)ccc4F)c3)N=C(N)N(C)C2=O)ccn1 (stereo not drawn) [Example 65]
138 to 141		0.01 to 0.1	Cc1cc(C2(c3cccc(-c4cnccn4)c3)N=C(N)N(C)C2=O)ccn1 (stereo not drawn) [Example 66]
138 to 140		0.01 to 0.1	CCc1cc(C2(c3cccc(-c4cnccn4)c3)N=C(N)N(C)C2=O)ccn1 (stereo not drawn) [Example 67]
200 to 202		0.11 to 1	CN1C(=O)C(c2ccncc2)(c2cccc(OCC3CC3)c2)N=C1N (stereo not drawn) [Example 71]
68 to 70		0.11 to 1	CCc1cc(C2(c3cccc(OCC4CC4)c3)N=C(N)N(C)C2=O)cc(CC)n1 (stereo not drawn) [Example 72]
176 to 180		0.11 to 1	Cc1cc(C2(c3cccc(-c4cccnc4)c3)N=C(N)N(C)C2=O)cc(C)n1 (stereo not drawn) [Example 74]
184 to 190		0.11 to 1	Cc1cc(C2(c3cccc(-c4cc(F)ccc4F)c3)N=C(N)N(C)C2=O)cc(C)n1 (stereo not drawn) [Example 76]
135 to 139	0.11 to 1		CCc1cc(C2(c3cccc(-c4cccnc4)c3)N=C(N)N(C)C2=O)cc(C)n1 (stereo not drawn) [Example 83]
114 to 117	0.11 to 1		CCc1cc(C2(c3cccc(-c4cc(F)ccc4F)c3)N=C(N)N(C)C2=O)cc(C)n1 (stereo not drawn) [Example 85]
130 to 134	0.11 to 1		CCc1cc(C2(c3cccc(-c4cnccn4)c3)N=C(N)N(C)C2=O)cc(C)n1 (stereo not drawn) [Example 86]
223 to 225	0.01 to 0.1		CN1C(=O)C(c2cccc(-c3cccnc3)c2)(c2ccnc(Cl)c2)N=C1N (stereo not drawn) [Example 89]
152 to 157	0.01 to 0.1		CCc1cc(C2(c3cccc(-c4cccnc4)c3)N=C(N)N(C)C2=O)cc(CC)n1 (stereo not drawn) [Example 90]
107 to 112	0.11 to 1		CCc1cc(C2(c3cccc(-c4cc(F)ccc4F)c3)N=C(N)N(C)C2=O)cc(CC)n1 (stereo not drawn) [Example 92]
181 to 186			Cc1cc(C2(c3cccc(-c4cncnc4)c3)N=C(N)N(C)C2=O)cc[n+]1[O-] (stereo not drawn) [Example 102]
155 to 157	0.01 to 0.1		CCc1cc(C2(c3ccc(F)c(-c4cncc(F)c4)c3)N=C(N)N(C)C2=O)cc(CC)n1 (stereo not drawn) [Example 104, 2-Amino-5-(2,6-diethyl-pyridin-4-yl)-5-[4-fluoro-3-(5-fluoropyridin-3-yl)-phenyl]-3-methyl-3,5-dihydro-imidazol-4-one]
173 to 175	> 1		CN1C(=O)C(c2ccc(OC(F)F)cc2)(c2cccnc2)N=C1N (stereo not drawn) [Example 111, 2-amino-5-[4-(difluoromethoxy)phenyl]-3-methyl-5-pyridin-3-yl-3,5-dihydro-4H-imidazol-4-one]
193 to 195	> 1		CN1C(=O)C(c2ccncc2)(c2ccc(OC(F)F)cc2)N=C1N (stereo not drawn) [Example 112, 2-amino-5-[4-(difluoromethoxy)phenyl]-3-methyl-5-pyridin-4-yl-3,5-dihydro-4H-imidazol-4-one]
